Test results: BindingDB's records for doi:10.1124/jpet.104.077339 (Section of Pharmacology, 2005)
pEC50, pKi: −log10 of the molar value. Where “and” joins values, the source holds several entries; their conditions need not be identical. Equal entries are not always repeated.

Experiments:
[1] = target: Delta-type opioid receptor (Homo sapiens, UniProt P41143)
[2] = target: Nociceptin receptor (Homo sapiens, UniProt P41146)
[3] = target: Kappa-type opioid receptor (Homo sapiens, UniProt P41145)
[4] = target: Mu-type opioid receptor (Homo sapiens, UniProt P35372)
Mu-type opioid receptor, sequence (P35372 whole entry): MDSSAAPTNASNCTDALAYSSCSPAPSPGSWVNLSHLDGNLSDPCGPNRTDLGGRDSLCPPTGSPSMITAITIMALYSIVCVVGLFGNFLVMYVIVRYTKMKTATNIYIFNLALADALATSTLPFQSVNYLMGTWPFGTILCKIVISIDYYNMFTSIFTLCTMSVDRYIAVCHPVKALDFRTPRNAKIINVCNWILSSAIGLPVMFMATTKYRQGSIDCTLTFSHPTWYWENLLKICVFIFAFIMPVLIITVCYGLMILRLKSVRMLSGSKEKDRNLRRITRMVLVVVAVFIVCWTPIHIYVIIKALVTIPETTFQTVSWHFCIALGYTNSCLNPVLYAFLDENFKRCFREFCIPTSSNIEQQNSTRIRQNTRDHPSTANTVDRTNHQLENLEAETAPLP

[5] = target: Nociceptin receptor (Mus musculus, UniProt P35377)
Nociceptin receptor (Mus musculus, UniProt P35377), sequence (P35377 whole entry): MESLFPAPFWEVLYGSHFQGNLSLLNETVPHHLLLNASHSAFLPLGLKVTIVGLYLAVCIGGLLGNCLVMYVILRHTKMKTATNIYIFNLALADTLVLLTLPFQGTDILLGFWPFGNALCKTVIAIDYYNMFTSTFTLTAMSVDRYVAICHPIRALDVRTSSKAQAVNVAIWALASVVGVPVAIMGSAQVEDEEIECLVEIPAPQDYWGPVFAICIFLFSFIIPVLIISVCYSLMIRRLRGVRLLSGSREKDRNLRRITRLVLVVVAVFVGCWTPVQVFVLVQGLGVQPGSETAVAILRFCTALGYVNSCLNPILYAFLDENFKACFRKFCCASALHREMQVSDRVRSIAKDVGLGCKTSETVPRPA

[6] = target: Nociceptin receptor (Rattus norvegicus, UniProt P35370)
Nociceptin receptor (Rattus norvegicus, UniProt P35370), sequence (P35370 whole entry): as the sequence (P35377 whole entry) above, with F9Y, A335S counted along it

[7] = target: Nociceptin receptor (Cavia porcellus)

Nociceptin receptor (Homo sapiens, UniProt P41146), sequence (P41146 whole entry): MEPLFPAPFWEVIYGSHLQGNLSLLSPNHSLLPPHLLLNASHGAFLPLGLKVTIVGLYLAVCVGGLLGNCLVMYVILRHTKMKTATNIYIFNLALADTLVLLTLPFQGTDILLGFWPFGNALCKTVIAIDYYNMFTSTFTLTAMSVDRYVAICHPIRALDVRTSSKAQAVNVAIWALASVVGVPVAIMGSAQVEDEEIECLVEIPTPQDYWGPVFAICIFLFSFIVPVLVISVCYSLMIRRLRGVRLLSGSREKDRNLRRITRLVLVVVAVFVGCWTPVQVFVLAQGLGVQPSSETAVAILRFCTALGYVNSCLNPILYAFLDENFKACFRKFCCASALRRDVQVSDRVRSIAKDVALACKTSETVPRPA
Delta-type opioid receptor, sequence (P41143 whole entry): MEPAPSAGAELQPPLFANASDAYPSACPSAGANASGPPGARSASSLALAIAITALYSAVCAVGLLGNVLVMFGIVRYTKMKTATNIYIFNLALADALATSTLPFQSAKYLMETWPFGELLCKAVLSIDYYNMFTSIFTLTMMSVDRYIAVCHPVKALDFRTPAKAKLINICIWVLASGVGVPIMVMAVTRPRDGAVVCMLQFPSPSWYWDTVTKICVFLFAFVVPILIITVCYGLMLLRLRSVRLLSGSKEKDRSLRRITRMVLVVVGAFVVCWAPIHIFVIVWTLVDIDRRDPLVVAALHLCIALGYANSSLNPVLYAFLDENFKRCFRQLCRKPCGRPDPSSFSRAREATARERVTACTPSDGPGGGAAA
Kappa-type opioid receptor, sequence (P41145 whole entry): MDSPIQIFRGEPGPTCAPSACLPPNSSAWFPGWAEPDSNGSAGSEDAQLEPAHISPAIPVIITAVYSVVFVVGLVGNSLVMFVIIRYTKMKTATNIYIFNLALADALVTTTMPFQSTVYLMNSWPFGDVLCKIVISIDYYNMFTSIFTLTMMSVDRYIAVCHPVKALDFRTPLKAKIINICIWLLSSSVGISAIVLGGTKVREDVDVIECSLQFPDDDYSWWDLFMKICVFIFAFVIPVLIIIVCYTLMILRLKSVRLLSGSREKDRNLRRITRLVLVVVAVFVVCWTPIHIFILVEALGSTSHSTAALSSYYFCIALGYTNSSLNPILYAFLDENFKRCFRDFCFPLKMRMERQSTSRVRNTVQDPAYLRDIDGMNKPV

C[C@H](NC(=O)CNC(=O)[C@@H](NC(=O)[C@H](Cc1ccc(F)cc1)NC(=O)CNC(=O)CNC(=O)[C@@H](N)Cc1ccccc1)[C@@H](C)O)C(=O)N[C@@H](CCCNC(=N)N)C(=O)N[C@@H](CCCCN)C(=O)N[C@@H](CO)C(=O)N[C@@H](C)C(=O)N[C@@H](CCCNC(=N)N)C(=O)N[C@@H](CCCCN)C(=O)N[C@@H](CCCNC(=N)N)C(=O)N[C@@H](CCCCN)C(=O)N[C@@H](CC(N)=O)C(=O)N[C@@H](CCC(N)=O)C(N)=O [OFQ/N UFP-102]
pKi [1]: 6.42 | pKi [2]: 10.12 and 10.17 and 10.68 | pKi [3]: 8.32 | pKi [4]: 7.15 | pKi [5]: 9.42 and 9.19 and 9.44 | pKi [6]: 8.57 | pEC50 [7]: 9.24
